The record followed here is patent publication US20230107216A1, “PANTETHEINE DERIVATIVES AND USES THEREOF” (Comet Therapeutics, Inc., priority 2018, published 2023).

The test system of assay [1] is Vitamin B12 deficiency (Cbl−/− diet) mouse model. Kind of assay: Vitamin B12 deficiency mouse model: bone marrow immunophenotyping (M1/M2 macrophages). In kind it is in vivo, C57BL/6 mice. Particulars: 50 mpk IP BID; for Ratio of M1/M2 macrophages in bone marrow: mice on the cbl−/− diet (untreated: M1/M2 ratio of 6); for Ratio of M1/M2 macrophages compared with mice on a control diet: mice on the cbl−/− diet. The method, then:
(§1) A vitamin B12 deficiency mouse model was used following the methods described at Ghosh et al 2016.
(§2) Animal maintenance and feeding. Female weanling C57BL/6 mice (n=65) were obtained at 3 weeks of age from Shanghai Sippe-Bk Lab Animal Co., Ltd. The mice were housed in a SPF environment and maintained at 20° C.±6, under standard lighting conditions (12-h light/dark cycle). Animals were divided into 5 animals per cage during modelling, and 3 animals per cage during compound test. The 3-week old mice were fed ad libitum with either AIN-76A control diet (D10001i) designated as control diet group or the same diet deficient in vitamin B12 (D07012902) with pectin as the source of fiber (designated as Cbl−/− cobalamin deficient) referred to as B12R+ by Ghosh et al. (Research Diets Inc., New Brunswick, N.J., USA). Cobalamin-restricted diet with pectin (B12R+) contained 50 g pectin/kg diet, because it has been shown earlier that pectin binds the intrinsic factor in the intestine and makes vitamin B12 less bioavailable. The control diet contained 50 g cellulose/kg diet as the fiber source instead of pectin. The mice also had ad libitum access to deionized water. Food intake and body weights were recorded every week.
Compound treatment. After 6 weeks of feeding on either control or Cbl−/− diet, 9-week-old mice on Cbl−/− diet were randomly assigned into 5 groups with 3 mice per group per treatment. Mice in each group were IP treated with vehicle (1% HPBCD, Sigma, H107) or were dosed at 50 mpk with Compound 1 or Compound 410 BID. One group of mice were sacrificed at 24h after the first dose. 2nd group of mice were sacrificed at 72h after the first dose. 3rd group of mice were sacrificed after 168h (i.e 7 days) after the first dose. 4th group of mice were fasted for 12h before sacrificing after 72h of the first dose. 5th group of mice were first fasted for 12h before any vehicle or compound treatment and sacrificed after 72h after the first dose.
Tissue and sample collection. At above specified timepoints, mice were weighed and anesthetized with CO2 before sample collection. For blood collection, the chest was opened to expose the heart. Up to 300 μl blood was drawn from the left ventricle with 1 ml syringe rinsed with EDTA-Na and dispensed into a K3EDTA mini collect tube (Greiner Bio-One) for haematology analysis. Then a new syringe was used to draw remaining blood from heart as much as possible. Serum was isolated by centrifugation at 5000 rpm for 10 min, aliquoted and kept at −80° C. until further use. For tissue collection after blood was drawn, mice were perfused with ice cold saline from the left ventricle. Heart, liver, kidney, spleen, brain was weighed after isolation. Then left leg was kept in ice cold PBS and bone marrow was isolated for further immunophenotype analysis. […]

Assay [2] shares this test system. Put plainly: Vitamin B12 deficiency mouse model: liver protein determination (ELISA, TNFα, protein carbonyls). The assay is classed as in vivo, C57BL/6 mice. The method, then: as §1, §2
Compound treatment. After 6 weeks of feeding on either control or Cbl−/− diet, 9-week-old mice on Cbl−/− diet were randomly assigned into 5 groups with 3 mice per group per treatment. […]

Assay [3] shares this test system. Kind of assay: Vitamin B12 deficiency mouse model: muscle strength by grip test. In kind it is in vivo, mice. Particulars: after 17 days of 50 mpk QD, IP. The method, then:
Mice at 18 weeks of age were either fed on control diet (n=12 mice) or cbl−/− diet (n=30 mice) for 15 weeks. Grip strength test was measured by using a Grip Strength test meter for mice and rats (Jiangsu, SANS Biological Technology, CO. LTD, SA417) and recorded as day zero grip strength analysis. Briefly, machine was turned on (push peak) and calibrated to zero. Front leg strength was measured by pulling the mice away from the bar by holding the tail of the mice. Total 5 values were measured for each mouse. After the measurement the cbl−/− mice were divided into three groups of N=10 mice per group. Each group received either vehicle (0.1% saline) or Compound 410 or Compound 500, IP at the dose of 50 mpk QD. […]

`CC(C)(CO)[C@@H](O)C(=O)NCCC(=O)NCCSC(=O)CCC(=O)O` [Compound 1, (R)-4-((2-(3-(2,4-dihydroxy-3,3-dimethylbutanamido)propanamido)ethyl)thio)-4-oxobutanoic acid]: in assay [1], the “Ratio of M1/M2 macrophages in bone marrow” value is on record as 3.967 and the “Ratio of M1/M2 macrophages compared with mice on a control diet” value is listed as “statistically indistinguishable”.
For the molecule `COC(=O)CC(C(C)=O)C(=O)SCCNC(=O)CCNC(=O)[C@H](O)C(C)(C)CO` (some centres unmarked) [Compound 410], the “Protein Carbonyl in liver homogenates” value in assay [2] (mice on the cbl−/− diet (untreated 25.4 pg/ug; control diet 16.6 pg/ug)) is 11.1 pg/µg. For the same molecule, in assay [2] (mice on the cbl−/− diet (untreated 171.8 pg/ug; control diet 121.46 pg/ug)), the “TNF-α in liver homogenates” value stood at 62 pg/µg. In addition, in assay [1], the “Ratio of M1/M2 macrophages in bone marrow” value is listed as 3.87 and the “Ratio of M1/M2 macrophages compared with mice on a control diet” value is given as “statistically indistinguishable”. In assay [3] (mice on the cbl−/− diet (36.5 g; control diet 59 g)), this molecule returned a Grip strength of 57.7 g. Also, the “Recovery of grip strength” value in assay [3] (mice on the cbl−/− diet) was “recovered grip strength to near the level of mice on the control diet”.
